Data reported in patent US20170369474A1, “COMPOUNDS, COMPOSITIONS AND METHODS OF USE” (Aquinnah Pharmaceuticals, Inc., priority 2014, published 2017).
Where two headings read alike, the source gives them in different places.

How the values were obtained:
[1] = test system: TDP-43 inclusions in PC12 cells stably expressing wild type (WT) TDP-43-GFP; test: Dose response assay for TDP-43 inhibition; type: cell-based; details: Rattus norvegicus, PC-12
Experimental: Exemplary compounds of the invention were evaluated for efficacy in inhibiting TDP-43 inclusions using a dose response assay. Briefly, PC12 cells stably expressing wild type (WT) TDP-43-GFP were stressed with 15 μM to induce TDP-43 inclusions. The cells were then treated with exemplary compounds of the invention and the inhibitory effect on TDP-43 inclusions was observed using fluorescent microscopy. The ratio of cells with TDP-43 inclusions was calculated based on the total number of cells with detectable GFP expression. A 12-point dose response curve was generated, and the IC50 for each compound tested was determined.

[2] = test system: Embryonic mouse hippocampal neurons transduced with TDP-43 EGFP; test: Neuroprotection assay (total dendrite length); type: cell-based; details: compound at 10 times the IC50 value, treated DIV7, 9, 11; fixed DIV12
Experimental: CMF dissection buffer: 1× Hank's balanced salt solution (Ca—/Mg, 500 mL) and 10 mM HEPES, pH 7.25-7.3 (IM stock, 5 mL)
Plating media: MEM (Earle salts+/Glutamine, 95 mL), FBS (to 2.5%, 2.5 mL), Pen/Strep (1×, 1 mL), glutamine (1×, 1 mL), and D-glucose (0.6% w/v, 0.6 g)
Feeding media: neurobasal media (96 mL), B27 supplement (2 mL), Pen/Strep (1 mL), and glutamine (1 mL).
Embryonic mouse hippocampal neurons were cultured according to Kaech, S. and Banker, G. (2006) Nat Protoc 1:2406-2415 and dissected at […] from CD1 mice. Once all the hippocampi were removed, they were placed in a 15 mL conical Falcon tube on ice and brought to a final volume of 4.5 mL with CMF dissection buffer. 0.5 mL of a 2.5% trypsin-EDTA solution was then added, and the mixture was incubated at 37° C. for 15 min. […] Neurons were traced and analyzed using NeuronJ.
Results of the neuroprotection assay for exemplary compounds of the invention are summarized in Table 1, wherein A represents an average rescue total dendrite length of >150%; B represents an average rescue total dendrite length of 100-149%; C represents an average rescue total dendrite length of 50-99%; D represents an average rescue total dendrite length of 0-49%; E represents an average rescue total dendrite length of <0%; and ND signifies that the average rescue total dendrite length was not determined.

[3] = test system: TDP-43 aggregates in motor neurons generated from ALS patient-derived iPSCs; test: Reduction of insoluble TDP-43 levels (immunoblot); type: cell-based; details: 2 μM for 48 hours
Experimental: The cells were differentiated into motor neurons for 22 days, then treated with 2 μM of Compounds 100, 101, and Compound 7 for 48 hours. The cells were lysed and TDP-43 aggregate formation was detected by immunoblot.

[4] = test system: C. elegans expressing A315T hTDP-43; test: Neuroprotection of C. elegans; type: in vivo; details: 34.8 μM; A315T transgenic animals, second day of adulthood
Experimental: Age synchronized C. elegans were cultured with 34.8 μM Compound 100 and the effect on the animal's movement and motor neurons were investigated. FIGS. 2A-2C show a comparison between the crawling speed of WT and Tg nematodes expressing wt (FIG. 2A), human wt (FIG. 2B), and A315T hTDP-43 (FIG. 2C) on the second day of adulthood.

Structure (SMILES) | IC50 ([1]; inhibition of TDP-43 inclusions, PC12 cells WT TDP-43-GFP, 12-point dose response, read-out: IC50) [nM] | Average Additive Dendrite Length (%) [2] | Reduction of TDP-43 aggregates in the sarkosyl insoluble fraction [3] | Neuroprotective effect on motor neurons [4] | IC50 [1] [nM]
Cc1ccc(Cl)cc1NS(=O)(=O)c1c(C(=O)N2CCCC2)c(C)n(C)c1C [Compound 100, N-(5-chloro-2-methylphenyl)-1,2,5-trimethyl-4-(pyrrolidine-1-carbonyl)-1H-pyrrole-3-sulfonamide] | 101 to 250 | B (B represents an average rescue total dendrite length of 100-149%) | reduced dimeric and multimeric TDP-43 aggregates | neuroprotective effect | –
CCc1cccc(C)c1NS(=O)(=O)c1c(C(=O)N2CCCC2)c(C)n(C)c1C [Compound 101, N-(2-ethyl-6-methylphenyl)-1,2,5-trimethyl-4-(pyrrolidine-1-carbonyl)-1H-pyrrole-3-sulfonamide] | – | A (A represents an average rescue total dendrite length of >150%) | reduced dimeric and multimeric TDP-43 aggregates | – | 101 to 250
